The values that follow come from patent publication US11624685B2, “Method and system for imaging and analysis of a biological specimen” (The Board of Trustees of the Leland Stanford Junior …, priority 2016, dated 2023).

One assay relates to ArcTRAP mice. The assay is described as follows: ArcTRAP labeling, background recombination. The following applies: novel aqueous formulation of 4TM, reduced dosage. The assay is classed as in vivo, mouse.
The subject of the next assay is mPFC of Arc-rTag mice. Description: Activity-dependent ribosome profiling of mPFC (microarray, qPCR). The assay is classed as in vivo, mouse. The following applies: IP fraction, two weeks after labeling. The protocol:
Male Arc-rTag mice were trained and labeled with 4TM with the same protocol used in ArcTRAP labeling. After labeling, the mice were returned and kept in their home cage for 14 days to allow full integration of tagged ribosomes.
Immunoaffinity purification of ribosome RNA from mPFC was carried out similarly to a protocol previously described (Sanz et al, Proc Natl Acad Sci USA, 106:13939-13944 (2009)) with minor modifications. For preparation of anti-GFP-conjugated dynabeads, for each sample 50 μl protein G dynabeads (Life Technologies) was first washed with PBST and then incubated with 2 μl anti-GFP antibody (Abcam, ab290) in a total volume of 200 μl PBST. […] RNA samples (all at 100 ng per sample) were processed at the Stanford Protein and Nucleic Acid Biotechnology Facility by one-cycle target preparation, labeling and hybridization to Mouse Gene 2.0 ST Array (Affymetrix), according to the manufacturer's protocol and analyzed by Affymetrix Transcriptiome Analysis Console.
For qPCR analysis, RNA was reverse transcribed using the ABI high capacity cDNA synthesis kit and used in quantitative PCR reactions containing SYBR-green fluorescent dye (ABI). Relative expression of mRNAs was determined after normalization with TBP levels using the ΔΔCt method. […]
(Quantitative PCR measures a nucleic acid by following its amplification.)

From the text for ArcTRAP mice: Male ArcTRAP (ArcCreER+/−, Ai14+/−) mice were used for study. 6-7 week old ArcTRAP mice were handled and injected with saline daily for at least 5 days prior to the experiment (including the home cage controls) to minimize the labeling due to handling and injections. The mice were 7-8 weeks old at the time of behavioral labeling. […] The home cage control group remained in their home cage for the whole period. All the chambers were cleaned with 70% ethanol between trials. On experimental day 2, all mice received 5 mg/kg 4TM (IP injection) 3 hours after the behavioral challenge to enable TRAP labeling. All groups, including the home cage controls, received 4-hyroxytamoxifen injections at the same time of the day (2-3 PM). The bedding of all cages were refreshed daily for 48 hours to prevent 4TM retake. All the labeled mice were kept in their home cage for an additional 10 days to allow the full expression of tdTomoto before perfusion.
10 mg of 4TM (Sigma H6278) was first dissolved in 250 μl DMSO. This stock is first diluted in 5 ml of saline containing 2% Tween 80 and then diluted 1:1 again with saline. The final injectable solution contained: 1 mg/ml 4TM, 1% Tween 80 and 2.5% DMSO in saline.

Consider 4-hydroxytamoxifen [4TM], for which the “background recombination in ArcTRAP line” value in the assay on ArcTRAP mice is recorded as “eliminate the background recombination”.

With `COC(=O)[C@H]1[C@@H](OC(=O)c2ccccc2)C[C@@H]2CC[C@H]1N2C` [cocaine], the “Npas4 transcript enrichment in cocaine-activated cells compared to shock-activated cells” value with mPFC of Arc-rTag mice is listed as 3 fold.
